One experiment has as its target Mcl-1 protein (UniProtKB primary accession number: Q07820) (Homo sapiens, UniProt Q07820). The experiment can be described thus: Inhibition of Mcl-1 by fluorescence polarisation, Method 1. Type of experiment: binding. Conditions: read-out: IC50 (M) Mcl-1 FP. In short, it runs like this:
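Binding was measured as fluorescence polarisation of a fluorescein-labelled ligand (1 nM) displaced from Mcl-1 (5 nM), both final. Compounds ran as 11-point series with final DMSO at 5%.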
On the technique in general: In fluorescence polarisation assays a small probe gives low polarisation when free and higher when bound to something large.

Experiment [1] concerns H929 multiple myeloma tumour line. The experiment can be described thus: In vitro cytotoxicity, Microculture Tetrazolium Assay. Type of experiment: cell-based. The settings on record: Homo sapiens, NCI-H929, 48 h, H929 cells, 48 hours exposure, MTT; read-out: IC50 (μM) MTT H929. As for the experimental part: The cytotoxicity studies were carried out on the H929 multiple myeloma tumour line.
The cells are distributed onto microplates and exposed to the test compounds for 48 hours.

Where [2] appears, read: fluorescence polarisation, Method 1, or Method 2.
Setting [3] is: fluorescence polarisation test, Method 2 values are underlined in the patent (underlining not visible here).

Where two headings read alike, the source gives them in different places.

Chain of Mcl-1 protein (Q07820 whole entry): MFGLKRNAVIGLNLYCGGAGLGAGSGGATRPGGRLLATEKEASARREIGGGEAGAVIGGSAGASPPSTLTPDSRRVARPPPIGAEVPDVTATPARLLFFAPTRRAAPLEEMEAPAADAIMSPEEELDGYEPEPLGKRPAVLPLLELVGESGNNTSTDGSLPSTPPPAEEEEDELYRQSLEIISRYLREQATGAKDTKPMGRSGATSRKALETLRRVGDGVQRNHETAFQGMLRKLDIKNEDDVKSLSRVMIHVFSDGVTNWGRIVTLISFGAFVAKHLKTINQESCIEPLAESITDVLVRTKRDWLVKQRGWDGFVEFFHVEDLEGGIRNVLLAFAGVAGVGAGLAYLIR

What is called IC50 is the midpoint of a concentration-inhibition curve. For `COCCOc1ccccc1-c1nccc(COc2ccccc2CC(Oc2ncnc3sc(-c4ccc(F)cc4)c(-c4ccc(OCCN(C)C)c(Cl)c4C)c23)C(=O)O)n1` [Example 753, (2R)-2-{[(5Sa)-5-{3-chloro-4-[2-(dimethylamino)ethoxy]-2-methylphenyl}-6-(4-fluorophenyl)thieno[2,3-d]pyrimidin-4-yl]oxy}-3-[2-({2-[2-(2-methoxyethoxy)phenyl]pyrimidin-4-yl}methoxy)phenyl]propanoic acid], the 50% inhibitory concentration (IC50) on Mcl-1 protein (setting [2]) came out at 3e-09 M; in experiment [1] it was 0.005 µM.

In the case of `Cc1c(-c2c(-c3ccco3)sc3ncnc(OC(Cc4ccccc4OCc4cccnc4)C(=O)O)c23)ccc(OCCN2CCN(C)CC2)c1Cl` [Example 242, (2R)-2-{[(5Sa)-5-{3-chloro-2-methyl-4-[2-(4-methylpiperazin-1-yl)ethoxy]phenyl}-6-(furan-2-yl)thieno[2,3-d]pyrimidin-4-yl]oxy}-3-[2-(pyridin-3-ylmethoxy)phenyl]propanoic acid], the half-maximal inhibitory concentration (IC50) came out at 7.3e-09 M at Mcl-1 protein (setting [3]) and 0.09 µM in experiment [1].

Consider `Cc1c(-c2c(-c3ccco3)sc3ncnc(OC(Cc4ccccc4SCC(F)(F)F)C(=O)O)c23)ccc(OCCN2CCN(C)CC2)c1Cl` [Example 362, (2R)-2-{[(5Sa)-5-{3-chloro-2-methyl-4-[2-(4-methylpiperazin-1-yl)ethoxy]phenyl}-6-(furan-2-yl)thieno[2,3-d]pyrimidin-4-yl]oxy}-3-{2-[(2,2,2-trifluoroethyl)sulfanyl]phenyl}propanoic acid], for which the IC50 at Mcl-1 protein (setting [3]) was 2.6e-08 M; in experiment [1], 1 µM.

Consider `COc1nccc(COc2ccccc2CC(Oc2ncnc3sc(-c4ccco4)c(-c4ccc(OCCN5CCN(C(C)C)CC5)c(Cl)c4C)c23)C(=O)O)n1` [Example 672, (2R)-2-{[(5Sa)-5-(3-chloro-2-methyl-4-{2-[4-(propan-2-yl)piperazin-1-yl]ethoxy}phenyl)-6-(furan-2-yl)thieno[2,3-d]pyrimidin-4-yl]oxy}-3-{2-[(2-methoxypyrimidin-4-yl)methoxy]phenyl}propanoic acid], for which the IC50 on Mcl-1 protein (setting [2]) was 4.3e-09 M; in experiment [1], 0.019 µM.

For the compound `Cc1c(-c2c(-c3ccc(F)cc3)sc3ncnc(OC(Cc4ccccc4OCc4ccnc(-c5cccs5)c4)C(=O)O)c23)ccc(OCCN2CCN(C)CC2)c1Cl` [Example 18, (2R)-2-{[(5Sa)-5-{3-chloro-2-methyl-4-[2-(4-methylpiperazin-1-yl)ethoxy]phenyl}-6-(4-fluorophenyl)thieno[2,3-d]pyrimidin-4-yl]oxy}-3-(2-{[2-(thiophen-2-yl)pyridin-4-yl]methoxy}phenyl)propanoic acid], the IC50 on Mcl-1 protein (setting [3]) was 8.3e-09 M; in experiment [1] it was 0.076 µM.

For `COc1ccc(-c2sc3ncnc(OC(Cc4ccccc4OC)C(=O)O)c3c2-c2ccc(OCCN3CCN(C)CC3)c(Cl)c2C)o1` [Example 544, (2R)-2-{[(5Sa)-5-{3-chloro-2-methyl-4-[2-(4-methylpiperazin-1-yl)ethoxy]phenyl}-6-(5-methoxyfuran-2-yl)thieno[2,3-d]pyrimidin-4-yl]oxy}-3-(2-methoxyphenyl)propanoic acid], the half-maximal inhibitory concentration (IC50) was 1.4e-08 M at Mcl-1 protein (setting [2]) and 0.274 µM in experiment [1].

As to `Cc1c(-c2c(-c3ccc(F)cc3)sc3ncnc(OC(Cc4ccccc4OCc4ccn[nH]4)C(=O)O)c23)ccc(OCCN2CCN(C)CC2)c1Cl` [Example 125, (2R)-2-{[(5Sa)-5-{3-chloro-2-methyl-4-[2-(4-methylpiperazin-1-yl)ethoxy]phenyl}-6-(4-fluorophenyl)thieno[2,3-d]pyrimidin-4-yl]oxy}-3-[2-(1H-pyrazol-5-ylmethoxy)phenyl]propanoic acid], the half-inhibitory concentration (IC50) is 7.3e-09 M on Mcl-1 protein (setting [3]) and 0.354 µM in experiment [1].

Turning to `Cc1c(-c2c(-c3ccco3)sc3ncnc(OC(Cc4ccccc4OCc4ccncc4)C(=O)O)c23)ccc(OCCN2CCN(C)CC2)c1Cl` [Example 258, (2R)-2-{[(5Sa)-5-{3-chloro-2-methyl-4-[2-(4-methylpiperazin-1-yl)ethoxy]phenyl}-6-(furan-2-yl)thieno[2,3-d]pyrimidin-4-yl]oxy}-3-[2-(pyridin-4-ylmethoxy)phenyl]propanoic acid], the half-maximal inhibitory concentration (IC50) on Mcl-1 protein (setting [3]) turned out to be 6.6e-09 M; in experiment [1] it was 0.069 µM.

For `CCc1sc2ncnc(OC(Cc3ccccc3)C(=O)O)c2c1-c1ccc(OCCCN2CCN(C)CC2)c(Cl)c1C` [Example 402, (2R)-2-[((5Sa)-5-{3-chloro-2-methyl-4-[3-(4-methylpiperazin-1-yl)propoxy]phenyl}-6-ethylthieno[2,3-d]pyrimidin-4-yl)oxy]-3-phenylpropanoic acid], the results for the 50% inhibitory concentration (IC50) (on Mcl-1 protein (setting [2]); in experiment [1]) were 6.6e-08 M and 10.4 µM, respectively.

Regarding `Cc1c(-c2c(-c3ccc(F)cc3)sc3ncnc(OC(Cc4ccccc4OCc4ccnn4CCN(C)C)C(=O)O)c23)ccc(OCCN2CCN(C)CC2)c1Cl` [Example 87, (2R)-2-{[(5Sa)-5-{3-chloro-2-methyl-4-[2-(4-methylpiperazin-1-yl)ethoxy]phenyl}-6-(4-fluorophenyl)thieno[2,3-d]pyrimidin-4-yl]oxy}-3-[2-({1-[2-(dimethylamino)ethyl]-1H-pyrazol-5-yl}methoxy)phenyl]propanoic acid], the IC50 on Mcl-1 protein (setting [3]) is 7e-09 M; in experiment [1] it was 0.274 µM.

`Cc1c(-c2c(-c3ccc(F)cc3)sc3ncnc(OC(Cc4ccccc4OCc4ccnc(N5CCN(C)CC5)n4)C(=O)O)c23)ccc(OCCN2CCN(C)CC2)c1Cl` [Example 50, (2R)-2-{[(5Sa)-5-{3-chloro-2-methyl-4-[2-(4-methylpiperazin-1-yl)ethoxy]phenyl}-6-(4-fluorophenyl)thieno[2,3-d]pyrimidin-4-yl]oxy}-3-(2-{[2-(4-methylpiperazin-1-yl)pyrimidin-4-yl]methoxy}phenyl)propanoic acid]: the IC50 came to 7.6e-09 M on Mcl-1 protein (setting [3]) and 0.076 µM in experiment [1].

As for `COCCOCCn1nccc1COc1ccccc1CC(Oc1ncnc2sc(-c3ccc(F)cc3)c(-c3ccc(OCCN4CCN(C)CC4)c(Cl)c3C)c12)C(=O)O` [Example 90, (2R)-2-{[(5Sa)-5-{3-chloro-2-methyl-4-[2-(4-methylpiperazin-1-yl)ethoxy]phenyl}-6-(4-fluorophenyl)thieno[2,3-d]pyrimidin-4-yl]oxy}-3-[2-({1-[2-(2-methoxyethoxy)ethyl]-1H-pyrazol-5-yl}methoxy)phenyl]propanoic acid], the concentration for half-maximal inhibition (IC50) on Mcl-1 protein (setting [3]) worked out at 3.2e-09 M; in experiment [1] it was 0.058 µM.

`Cc1c(-c2c(-c3ccc(F)cc3)sc3ncnc(OC(Cc4ccccc4OCc4cnccn4)C(=O)O)c23)ccc(OCCCN(C)C)c1Cl` [Example 147, (2R)-2-{[(5Sa)-5-{3-chloro-4-[3-(dimethylamino)propoxy]-2-methylphenyl}-6-(4-fluorophenyl)thieno[2,3-d]pyrimidin-4-yl]oxy}-3-[2-(pyrazin-2-ylmethoxy)phenyl]propanoic acid]: the IC50 at Mcl-1 protein (setting [3]) was found to be 2.4e-08 M; in experiment [1], 0.787 µM.

For the compound `COCc1cc(-c2sc3ncnc(OC(Cc4ccccc4OCc4ccnc(OC)n4)C(=O)O)c3c2-c2ccc(OCCN3CCN(C)CC3)c(Cl)c2C)ccc1F` [Example 594, (2R)-2-[((5Sa)-5-{3-chloro-2-methyl-4-[2-(4-methylpiperazin-1-yl)ethoxy]phenyl}-6-[4-fluoro-3-(methoxymethyl)phenyl]thieno[2,3-d]pyrimidin-4-yl)oxy]-3-{2-[(2-methoxypyrimidin-4-yl)methoxy]phenyl}propanoic acid], the half-inhibitory concentration (IC50) on Mcl-1 protein (setting [2]) was 6.1e-09 M; in experiment [1], 0.13 µM.

As to `CCc1sc2ncnc(OC(Cc3ccccc3)C(=O)O)c2c1-c1ccc(OCCN2CCOCC2)c(Cl)c1C` [Example 420, (2R)-2-[((5Sa)-5-{3-chloro-2-methyl-4-[2-(morpholin-4-yl)ethoxy]phenyl}-6-ethylthieno[2,3-d]pyrimidin-4-yl)oxy]-3-phenylpropanoic acid], the results for the concentration for half-maximal inhibition (IC50) (on Mcl-1 protein (setting [2]); in experiment [1]) were 4e-08 M and 15.6 µM, respectively.

For `COc1ccccc1CC(Oc1ncnc2sc(-c3ccc(F)cc3)c(-c3ccc(OCCN4CCN(C)CC4)c(Cl)c3C)c12)C(=O)OCOC(=O)C(C)(C)C` [Example 643, {[(2R)-2-{[(5Sa)-5-{3-chloro-2-methyl-4-[2-(4-methylpiperazin-1-yl)ethoxy]phenyl}-6-(4-fluorophenyl)thieno[2,3-d]pyrimidin-4-yl]oxy}-3-(2-methoxyphenyl)propanoyl]oxy}methyl 2,2-dimethylpropanoate], the half-inhibitory concentration (IC50) on Mcl-1 protein (setting [2]) was 6.6e-07 M; in experiment [1], 0.303 µM.

Turning to `COCCOc1cc(COc2ccccc2CC(Oc2ncnc3sc(-c4ccc(F)cc4)c(-c4ccc(OCCN5CCN(C)CC5)c(Cl)c4C)c23)C(=O)O)ccn1` [Example 22, (2R)-2-{[(5Sa)-5-{3-chloro-2-methyl-4-[2-(4-methylpiperazin-1-yl)ethoxy]phenyl}-6-(4-fluorophenyl)thieno[2,3-d]pyrimidin-4-yl]oxy}-3-(2-{[2-(2-methoxyethoxy)pyridin-4-yl]methoxy}phenyl)propanoic acid], the half-inhibitory concentration (IC50) at Mcl-1 protein (setting [3]) is 8.3e-09 M; in experiment [1], 0.092 µM.

Take `Cc1c(-c2c(-c3ccco3)sc3ncnc(OC(Cc4ccccc4OCc4cscn4)C(=O)O)c23)ccc(OCCN2CCN(C)CC2)c1Cl` [Example 281, (2R)-2-{[(5Sa)-5-{3-chloro-2-methyl-4-[2-(4-methylpiperazin-1-yl)ethoxy]phenyl}-6-(furan-2-yl)thieno[2,3-d]pyrimidin-4-yl]oxy}-3-[2-(1,3-thiazol-4-ylmethoxy)phenyl]propanoic acid]: the half-inhibitory concentration (IC50) on Mcl-1 protein (setting [3]) worked out at 7.9e-09 M; in experiment [1], 0.081 µM.

In the case of `Cc1c(-c2c(Br)sc3ncnc(OC(Cc4ccccc4)C(=O)O)c23)ccc(OCCN2CCN(C)CC2)c1Cl` [Example 518, (2R)-2-[(6-bromo-(5Sa)-5-{3-chloro-2-methyl-4-[2-(4-methylpiperazin-1-yl)ethoxy]phenyl}thieno[2,3-d]pyrimidin-4-yl)oxy]-3-phenylpropanoic acid], the half-maximal inhibitory concentration (IC50) turned out to be 3.5e-08 M on Mcl-1 protein (setting [2]) and 9.18 µM in experiment [1].

Source of the values: patent US9670227B2, “Thienopyrimidine derivatives, a process for their preparation and pharmaceutical compositions containing them” (LES LABORATOIRES SERVIER, priority 2013, dated 2017).
